Reference: PMC7619633, “Targeting of multiple tumor-associated antigens by individual T cell receptors during successful cancer immunotherapy” (Cell, 2023)

Experiments:
[1] = test system: MM909.11 TIL; assay: HLA A*03:01-TAG tetramer staining of TIL from patient MM909.11; type: binding, human
Protocol: (§1) Staining was performed in 5 mL polystyrene test tubes (1 wash per step) or 96U well plates (3 washes per step), using 0.5-1 x10^5 cells per sample. Dead cells were detected with 2 µL of a 1:40 PBS dilution of LIVE/DEAD® Fixable Violet Dead Stain Kit (VIVID). Samples were acquired on a BD FACSCanto II (BD Biosciences, Franklin Lakes, NJ, USA) or ACEA NovoCyte 3005 with NovoSampler pro (ACEA Biosciences, Agilent, CA, US), then analyzed with FlowJo software (Tree Star Inc., Ashland, Oregon, US). Cells were gated on FSC-A versus SSC-A, single cells (FSC-A versus FSC-H), then viable cells (marker of choice versus VIVID). Cell sorting was performed on a BD FACS Aria III (BD Biosciences) by Central Biotechnology Services at Cardiff University. T cells for TCR sequencing were captured in RLT lysis buffer supplemented with 40 mM DTT or RNAprotect reagent (both from Qiagen). T cells or established cell lines sorted for culture were collected in their respective culture media supplemented with 25 µg mL^-1 of Amphotericin B (Thermo Fisher Scientific) and 10 µg mL^-1 of Ciprofloxacin (Ciproxin, Bayer, Leverkusen, Germany).
(§2) Monomeric pMHC were generated in house as described below and used to assemble tetramers as previously described.[52] […]

[2] = test system: MM909.15 TIL; assay: HLA A*03:01-TAG tetramer staining of TIL from patient MM909.15; type: binding, human
Protocol: as §1, §2

[3] = test system: MEL5 and MEL8 TCRs, MM909.24 TIL; assay: Recognition of the 9-mer BST2 peptide (MIP-1β ELISA and tetramer staining); type: cell-based, human; conditions: Figures S7C–S7F
Protocol: In brief, tetramers were assembled by 5 consecutive 20 min incubations of PE or APC conjugated streptavidin (both from Life Technologies) with pMHC monomer at 1:4 molar ratio, on ice in the dark. Once assembled, 1:100 protease inhibitor (set 1, Merk, London, UK) and PBS was added to a working concentration of 0.1 mg mL^-1 (with regards to the pMHC component). Tetramers were stored at 4°C in the dark and used within 3 days of assembly. To remove aggregates, tetramers were centrifuged at full speed in a microfuge for 1 min immediately before staining samples. Tetramer staining was performed as previously described.[52],[53] Briefly, T cell clones, lines, TILs or Jurkat cells were pre-treated with 50 nM of the protein kinase inhibitor Dasatinib at 37°C for 10-30 min in 100 µL of FACS buffer (PBS with 2% FBS), followed by the addition of 0.5 µg tetramer (with respect to pMHC component) without washing or pre-chilling, and incubated for 30 min on ice and in the dark. Cells were then washed in PBS and stained with VIVID for 5 mins at room temperature. […]
T cells were ‘rested’ overnight in R5 medium (R10 but with 5% FBS) to help reduce spontaneous release of chemokines and cytokines. […] T cell activation towards peptide was determined by MIP-1β release, and for cancer or healthy cell targets it was determined by TNF release. […]

Sequence	% of TIL stained with TAG tetramer ([1]; HLA A*03:01-RLSNRLLLR tetramer, MM909.11 TIL (passage-2), Fig S4N)	TAG T cells as share of the anti-melanoma response of the TIL ([1]; MM909.11, from % tetramer+ cells and TIL reactivity toward autologous melanoma)	% of TIL stained with TAG tetramer ([2]; HLA A*03:01-RLSNRLLLR tetramer, MM909.15 TIL (passage-2), Fig S4N)	TAG T cells as share of the anti-melanoma response of the TIL ([2]; MM909.15, from % tetramer+ cells and TIL reactivity toward autologous melanoma)	Recognition by TCRs of this study [3]
RLSNRLLLR [TAG, HLA A*03:01-restricted peptide from cancer/testis tumor antigen gene (TAG); peptide and tetramer]	0.67%	17.5%	0.05%	1.1%	–
LLLGIGILV [BST2_9, previously described 9-mer BST2 peptide]	–	–	–	–	not recognized
